Results as given in patent publication US20100041760A1, “MONOARYL AMINOTETRALINES” (priority 2008, published 2010).

Legend:
human CRTH2 = biological target: T1, human CRTH2 (Homo sapiens, UniProt Q9Y5Y4); experiment: Human CRTH2 Receptor Binding Assay (whole cell, [3H]ramatroban competition); design: expressed in transfected cells; host or cells: CHO-K1 (co-transfected with G-alpha16); details: CHO-K1 cells expressing human CRTH2 and G-alpha16; 20 nM [3H]ramatroban; 1 hour, room temperature
T1 sequence (Q9Y5Y4 1-395): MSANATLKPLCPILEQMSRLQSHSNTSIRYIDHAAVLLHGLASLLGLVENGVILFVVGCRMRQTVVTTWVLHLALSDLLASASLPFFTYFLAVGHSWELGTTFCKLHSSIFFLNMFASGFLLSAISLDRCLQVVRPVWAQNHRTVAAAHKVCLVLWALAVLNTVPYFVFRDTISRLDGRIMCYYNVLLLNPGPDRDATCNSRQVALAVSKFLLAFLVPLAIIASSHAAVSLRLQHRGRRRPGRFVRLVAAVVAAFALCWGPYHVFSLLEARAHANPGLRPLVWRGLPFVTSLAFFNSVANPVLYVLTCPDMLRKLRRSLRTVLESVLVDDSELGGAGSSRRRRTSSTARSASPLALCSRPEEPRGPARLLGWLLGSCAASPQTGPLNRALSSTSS
Excerpt: A whole cell receptor binding assay using [^3H]ramatroban as the competing radioactive ligand was employed to evaluate the compound binding activity to human CRTH2. The radioactive ligand [^3H]ramatroban was synthesized according to Sugimoto et. al. (Eur. J. Pharmacol. 524, 30-37, 2005) to a specific activity of 42 Ci/mmol.
A cell line stably expressing human CRTH2 was established by transfecting CHO-K1 cells with two mammalian expression vectors that harbored human CRTH2 and G-alpha16 cDNAs, respectively, using FuGene® 6 transfection reagent (from Roche). Stable clones expressing CRTH2 were selected by staining each clone with BM16 (BD Pharmingen™ from BD Biosciences, a division of Becton, Dickinson and Company), which is a rat monoclonal antibody to human CRTH2. The cells were maintained as monolayer cultures in Ham's F-12 medium containing 10% fetal bovine serum, 100 units/mL penicillin, 100 μg/mL streptomycin, 2 mM glutamine, 0.5 mg/mL G418 (geneticin) for CRTH2, and 0.2 mg/mL hygromycin-B (for G-alpha 16). For whole cell receptor binding assay, the monolayer cells were rinsed once with PBS (phosphate buffered saline), dissociated using ethylenediaminetetraacetate (Versene™ EDTA from Lonza Inc.), and suspended in PBS containing 10 mM MgCl2 and 0.06% BSA (bovine serum albumin) at 1.5×10^6 cells/mL.
The binding reactions (0.2 mL) were performed in 96-well plates at room temperature in PBS containing 1.5×10^5 cells, 10 mM MgCl2, 0.06% BSA, 20 nM [^3H]ramatroban, and test compound at various concentrations. After 1 hour of binding reactions, the cells were harvested on GF™/B filter microplates (microtiter plates with embedded glass fiber from PerkinElmer, Inc.) and washed 5 times with PBS using a Filtermate™ Harvester (a cell harvester that harvests and washes cells from microplates from PerkinElmer, Inc.). The radioactivities bound to the cells were determined using a microplate scintillation counter (TopCount® NXT, from PerkinElmer, Inc.) after adding 50 μL of Microscint™ 20 scintillation fluid (from PerkinElmer, Inc.) to each well of the filter plates. The radioactivity from non-specific binding was determined by replacing compound with 10 μM of 15(R)-15-methyl PGD2 (from Cayman Chemical Company) in the reaction mixtures. The radioactivity bound to the cells in the absence of compound (total binding) was determined by replacing compound with 0.25% of DMSO (dimethyl sulfoxide) in the reaction mixture. Specific binding data were obtained by subtracting the radioactivity of non-specific binding from each binding data.
(§1) The IC50 value is defined as the concentration of the tested compound that is required for 50% inhibition of total specific binding. In order to calculate the IC50 value, the percent inhibition data were determined for 7 concentrations for each compound. The percent inhibition for a compound at each concentration was calculated according to the following formula, [1−(specific binding in the presence of compound)/(total specific binding)]×100. The IC50 value was then obtained by fitting the percent inhibition data to a sigmoidal dose-response (4 parameter logistic) model in the XLfit® software Excel add-in program [from ID Business Solutions Ltd., model 205, where F(x)=(A+(B−A)/(1+((C/x)̂D)))].

[1] = biological target: T2, thromboxane A2 receptor (TP) (Homo sapiens, UniProt P21731); experiment: Human Thromboxane A2 Receptor Binding Assay; details: human platelets; 10 nM [3H]SQ29548; 1 hour, room temperature
T2 construct: using human platelets as the source of the receptor; from tissue; host or cells: human platelets (whole platelets, 5x10^7 per well)
T2 sequence (P21731 1-343): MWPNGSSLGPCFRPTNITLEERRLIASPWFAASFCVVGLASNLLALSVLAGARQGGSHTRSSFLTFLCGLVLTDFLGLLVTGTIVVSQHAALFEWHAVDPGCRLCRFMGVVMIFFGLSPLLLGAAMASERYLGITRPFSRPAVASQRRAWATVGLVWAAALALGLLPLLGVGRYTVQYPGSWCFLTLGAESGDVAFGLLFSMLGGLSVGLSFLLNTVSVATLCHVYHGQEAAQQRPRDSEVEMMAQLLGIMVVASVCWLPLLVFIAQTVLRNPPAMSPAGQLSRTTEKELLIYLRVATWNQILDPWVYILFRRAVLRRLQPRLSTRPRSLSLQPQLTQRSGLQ
Excerpt: The thromboxane A2 receptor (TP) plays a key role in hemostasis as its abnormality leads to bleeding disorders. To avoid the potential liability of bleeding disorders, the binding activity of certain compounds of the present invention against TP was monitored by a receptor binding assay using human platelets as the source of the receptor and [^3H]SQ29548 (generically named (5Z)-[5,6-^3H]-7-[(1S,2R,3R,4R)-3-[[2-[(phenylamino)carbonyl]hydrazinyl]methyl]-7-oxabicyclo[2.2.1]hept-2-yl]-5-heptenoic acid, from PerkinElmer Inc.) as the competing radioactive ligand.
The TP binding reactions (0.2 mL) were performed in 96-well plates at room temperature in PBS containing 5×10^7 platelets, 10 mM MgCl2, 0.06% BSA, 10 nM [^3H]SQ29548, and the test compound at various concentrations. After 1 hour of binding reactions, the platelets were harvested on GF/B filter plates (as previously described from PerkinElmer Inc.) and washed 5 times with PBS using a Filtermate™ Harvester (as previously described from PerkinElmer Inc.). The radioactivities bound to the platelets were determined using a microplate scintillation counter (TopCount® NXT, from PerkinElmer Inc.) after adding 50 μL of Microscint™ 20 scintillation fluid (from PerkinElmer Inc.) to each well of the filter plates. The radioactivity from non-specific binding was determined by replacing the compound with 10 μM of ramatroban (BAY-u3405, from Cayman Chemical Company) in the reaction mixtures. The radioactivity bound to the platelets in the absence of compound (total binding) was determined by replacing the compound with 0.25% of DMSO in the reaction mixture. Specific binding data were obtained by subtracting the radioactivity of non-specific binding from each binding data.
as §1

Row | IC50 (human CRTH2) | IC50 [1] | Compound
1 | 177 nM | > 10000 nM | CN([C@@H]1CCCc2c(OCC(=O)O)cccc21)S(=O)(=O)c1cc(C(C)(C)C)cc(C(C)(C)C)c1 [Example 1-2, {(R)-5-[(3,5-di-tert-butyl-benzenesulfonyl)-methyl-amino]-5,6,7,8-tetrahydro-naphthalen-1-yloxy}-acetic acid]
2 | 15.7 nM | > 10000 nM | CN([C@@H]1CCCc2c(OCC(=O)O)cccc21)S(=O)(=O)c1cc(S(C)(=O)=O)cc(S(C)(=O)=O)c1 [Example 1-3, {(R)-5-[(3,5-bis-methanesulfonyl-benzenesulfonyl)-methyl-amino]-5,6,7,8-tetrahydro-naphthalen-1-yloxy}-acetic acid]
3 | 110 nM | > 10000 nM | COc1cc(C(F)(F)F)cc(S(=O)(=O)N(C)[C@@H]2CCCc3c(OCC(=O)O)cccc32)c1 [Example 1-4, {(R)-5-[(3-methoxy-5-trifluoromethyl-benzenesulfonyl)-methyl-amino]-5,6,7,8-tetrahydro-naphthalen-1-yloxy}-acetic acid]
4 | 74.2 nM | > 10000 nM | CN([C@@H]1CCCc2c(OCC(=O)O)cccc21)S(=O)(=O)c1cc(Br)cc(C(F)(F)F)c1 [Example 1-5, {(R)-5-[(3-bromo-5-trifluoromethyl-benzenesulfonyl)-methyl-amino]-5,6,7,8-tetrahydro-naphthalen-1-yloxy}-acetic acid]
5 | 18.3 nM | > 10000 nM | CN([C@@H]1CCCc2c(OCC(=O)O)cccc21)S(=O)(=O)c1cc(C(F)(F)F)cc(C(F)(F)F)c1 [Example 1-6, {(R)-5-[(3,5-bis-trifluoromethyl-benzenesulfonyl)-methyl-amino]-5,6,7,8-tetrahydro-naphthalen-1-yloxy}-acetic acid]
6 | 6.8 nM | > 10000 nM | CC(C)[S+]([O-])c1cc(C(F)(F)F)cc(S(=O)(=O)N(C)[C@@H]2CCCc3c(OCC(=O)O)cccc32)c1 (stereo partly drawn) [Example 2-1, ((R)-5-{methyl-[3-(propane-2-sulfinyl)-5-trifluoromethyl-benzenesulfonyl]-amino}-5,6,7,8-tetrahydro-naphthalen-1-yloxy)-acetic acid]
7 | 2.9 nM | > 10000 nM | CN([C@@H]1CCCc2c(OCC(=O)O)cccc21)S(=O)(=O)c1cc(C(F)(F)F)cc(S(=O)(=O)C2CCCC2)c1 [Example 3-1, {(R)-5-[(3-cyclopentanesulfonyl-5-trifluoromethyl-benzenesulfonyl)-methyl-amino]-5,6,7,8-tetrahydro-naphthalen-1-yloxy}-acetic acid]
8 | 3.6 nM | > 10000 nM | CC(C)S(=O)(=O)c1cc(C(F)(F)F)cc(S(=O)(=O)N(C)[C@@H]2CCCc3c(OCC(=O)O)cccc32)c1 [Example 3-2, ((R)-5-{methyl-[3-(propane-2-sulfonyl)-5-trifluoromethyl-benzenesulfonyl]-amino}-5,6,7,8-tetrahydro-naphthalen-1-yloxy)-acetic acid]
9 | 3.4 nM | > 10000 nM | CN([C@@H]1CCCc2c(OCC(=O)O)cccc21)S(=O)(=O)c1cc(C(F)(F)F)cc(S(=O)(=O)C(C)(C)C)c1 [Example 3-3, ((R)-5-{methyl-[3-(2-methyl-propane-2-sulfonyl)-5-trifluoromethyl-benzenesulfonyl]-amino}-5,6,7,8-tetrahydro-naphthalen-1-yloxy)-acetic acid]
10 | 127 nM | > 10000 nM | CN([C@@H]1CCCc2c(OCC(=O)O)cccc21)S(=O)(=O)c1cc(N2CCCC2)cc(C(F)(F)F)c1 [Example 4-1, {(R)-5-[methyl-(3-pyrrolidin-1-yl-5-trifluoromethyl-benzenesulfonyl)-amino]-5,6,7,8-tetrahydro-naphthalen-1-yloxy}-acetic acid]
11 | 410 nM | > 10000 nM | CC(C)N(C)c1cc(C(F)(F)F)cc(S(=O)(=O)N(C)[C@@H]2CCCc3c(OCC(=O)O)cccc32)c1 [Example 4-3, ((R)-5-{[3-(isopropyl-methyl-amino)-5-trifluoromethyl-benzenesulfonyl]-methyl-amino}-5,6,7,8-tetrahydro-naphthalen-1-yloxy)-acetic acid]
12 | 16.5 nM | > 10000 nM | CN([C@@H]1CCCc2c(OCC(=O)O)cccc21)S(=O)(=O)c1cc(C(C)(F)F)cc(C(F)(F)F)c1 [Example 5-1, ((R)-5-{[3-(1,1-difluoro-ethyl)-5-trifluoromethyl-benzenesulfonyl]-methyl-amino}-5,6,7,8-tetrahydro-naphthalen-1-yloxy)-acetic acid]
13 | 78.2 nM | > 10000 nM | CC(=O)c1cc(C(F)(F)F)cc(S(=O)(=O)N(C)[C@@H]2CCCc3c(OCC(=O)O)cccc32)c1 [Example 6-1, {(R)-5-[(3-acetyl-5-trifluoromethyl-benzenesulfonyl)-methyl-amino]-5,6,7,8-tetrahydro-naphthalen-1-yloxy}-acetic acid]
14 | 76.6 nM | > 10000 nM | CN([C@@H]1CCCc2c(OCC(=O)O)cccc21)S(=O)(=O)c1cc(C(F)(F)F)cc(C2(C)CC2)c1 [Example 7-1, ((R)-5-{methyl-[3-(1-methyl-cyclopropyl)-5-trifluoromethyl-benzenesulfonyl]-amino}-5,6,7,8-tetrahydro-naphthalen-1-yloxy)-acetic acid]
15 | 91.2 nM | > 10000 nM | CC(C)c1cc(C(F)(F)F)cc(S(=O)(=O)N(C)[C@@H]2CCCc3c(OCC(=O)O)cccc32)c1 [Example 8-1, {(R)-5-[(3-isopropyl-5-trifluoromethyl-benzenesulfonyl)-methyl-amino]-5,6,7,8-tetrahydro-naphthalen-1-yloxy}-acetic acid]
